Laboratory results taken from patent publication US8058306B2, “Phenyl pyrrole aminoguanidine derivatives” (Action Pharma A/S, priority 2006, dated 2011).
“And” between values parts separate entries of the source, which are not always exact repeats. Equal values may be shown once. “Also recorded” adds a separate entry of the source. Read-outs that look alike come from different tables or passages of the source.

Experiment: Plasma kinetics in rat following intravenous and oral administration;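 for AUC0-∞: parameter is AUC from zero to infinity in ng·h/mL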
Assay type: in vivo, Sprague Dawley rats
Procedure: This study determined the intravenous pharmacokinetics and oral bioavailability of compound 1 of the invention (see FIG. 1A, structure no. 1), compound 2 of the invention (see FIG. 1D, structure no. 19) and compound 3 of the invention (see FIG. 1I, structure no. 53) following administration to Sprague Dawley rats at a dose level of 10 mg/kg.
Six groups of 3 male rats received either a single intravenous or single oral administration of compound 1, 2 or 3 of the invention at a dose level of 10 mg/kg. Blood samples were obtained at various times after dosing. Plasma samples were analysed for unchanged test item using a suitable LC-MS/MS method. Pharmacokinetic parameters were estimated from individual plasma concentrations.
Eighteen male rats each received either a single intravenous or a single oral administration of either compound 1, 2 or 3 at a dose level of 10 mg/kg. The formulation was orally administered to each animal by gastric gavage and intravenously administered to each animal via a tail vein. The dose was administered at a dose volume of 5 mL/kg. The formulations were administered to each animal according to the details in the following table:
Blood samples (ca 0.3 mL) were removed from the femoral vein of each animal into tubes containing lithium heparin as anticoagulant.
Blood samples were collected from 3 rats at the following times after dose administration: • 3, 6, 15, 45 min and 1.5, 2.5, 4, 6, 8, 24 h post dose. Oral Administration
Blood samples were collected from 3 rats at the following times after dose administration: • 5, 15, 45 min and 1.5, 2.5, 4, 6, 8, 24 h post dose. Processing of Blood Samples
Pharmacokinetic parameters of compound 1, 2 and 3 were derived by non-compartmental analysis using WinNonLin Pro version 5.0.1 (Pharsight 2005). The following parameters were derived, where appropriate, from the individual plasma concentration versus time profiles:
• F % The absolute oral bioavailability calculated as [AUC0-t (oral)*Dose(iv)/AUC0-t (iv)*Dose (oral)]*100 based on mean values derived after oral and intravenous administration Consideration was given to the estimation of λz and corresponding t1/2 values. Three or more points are required within the terminal phase for λz and t1/2 to be estimated. The following additional variables were tabulated to aid identification of potentially unreliable estimates of t1/2 and AUC:
Pharmacokinetic parameters were reported as geometric mean except Tmax which was reported as the median. Geometric coefficient of variation was calculated as: […]
Actual sampling times were used for all calculations of pharmacokinetic parameters. Plasma concentrations that were below the limit of quantification were taken as zero for the pharmacokinetic analysis.

[1] = intravenous 10 mg/kg, male rats, individual animals, acetate, 10 mg/kg
[2] = male, Sprague Dawley, rat, plasma, iv, 10 mg/kg, single intravenous 10 mg/kg, male rats, individual animals, read-out: Sample Concentration in plasma
[3] = male, Sprague Dawley, rat, plasma, iv, 10 mg/kg, single intravenous 10 mg/kg, male rats, mean of 3, read-out: Mean Concentration in plasma

**Q.** Which bioavailability (Sprague Dawley, rat, plasma, 10 mg/kg oral vs intravenous, male rats, from mean AUC0-t, read-out: Mean absolute oral bioavailability) does the source give for N=C(N)NN=CC=Cc1cccn1-c1ccccc1[N+](=O)[O-] [Compound 2, [1-(2-nitrophenyl)-1H-pyrrol-2-yl-allylideneamino]guanidinium acetate] here?
**A.** 3.2%

**Q.** What about the “Between-animal variability in systemic exposure, coefficient of variation (CV) of AUC0-t” value (intravenous 10 mg/kg, male rats) of the same compound?
**A.** less than 30%

**Q.** And the “AUC0-∞” value [1]?
**A.** 1868 ng·h/mL and 2468 ng·h/mL

**Q.** What about the AUC(0-t) [1] of the same compound?
**A.** 1701 ng·h/mL and 2445 ng·h/mL

**Q.** And the C0 [1]?
**A.** 4747 ng/mL and 2637 ng/mL

**Q.** And the CL [1]?
**A.** 90.45 mL/min/kg and 68.88 mL/min/kg

**Q.** What about the MRT [1] of the same compound?
**A.** 2.84 h and 4.84 h

**Q.** What about the Vss [1] of the same compound?
**A.** 15.408 L/kg and 20.008 L/kg

**Q.** What about the t1/2 [1] of the same compound?
**A.** 2.718 h and 3.8896 h

**Q.** What about the “Systemic clearance (in words)” value (intravenous 10 mg/kg, rats) of the same compound?
**A.** high

**Q.** What about the “volume of distribution compared with total body water (in words)” value (intravenous 10 mg/kg, rats, total body water 668 mL/kg, acetate, 10 mg/kg) of the same compound?
**A.** exceeded the total body water; also recorded: markedly greater than that of the total body water

**Q.** What about the “systemic plasma clearance (CL) compared with hepatic blood flow (in words)” value (intravenous 10 mg/kg, hepatic blood flow 3312 mL/h/kg) of the same compound?
**A.** greater than hepatic blood flow

**Q.** And the AUC(0-inf) (male, Sprague Dawley, rat, plasma, iv, 10 mg/kg, intravenous 10 mg/kg, male rats, Arithmetic Mean)?
**A.** 2030 ng·h/mL

**Q.** What about the AUC(0-t) (male, Sprague Dawley, rat, plasma, iv, 10 mg/kg, intravenous 10 mg/kg, male rats, Arithmetic Mean, read-out: AUC0-t) of the same compound?
**A.** 1880 ng·h/mL

**Q.** And the C0 (male, Sprague Dawley, rat, plasma, iv, 10 mg/kg, intravenous 10 mg/kg, male rats, Arithmetic Mean, read-out: C0)?
**A.** 3470 ng/mL

**Q.** What about the clearance (male, Sprague Dawley, rat, plasma, iv, 10 mg/kg, intravenous 10 mg/kg, male rats, Arithmetic Mean, read-out: CL (converted)) of the same compound?
**A.** 85.5 mL/min/kg

**Q.** What about the MRT (male, Sprague Dawley, rat, plasma, iv, 10 mg/kg, intravenous 10 mg/kg, male rats, Arithmetic Mean, read-out: MRT) of the same compound?
**A.** 3.74 h

**Q.** What about the Vd (male, Sprague Dawley, rat, plasma, iv, 10 mg/kg, intravenous 10 mg/kg, male rats, Arithmetic Mean, read-out: Vss) of the same compound?
**A.** 18.7 L/kg

**Q.** What about the half-life (male, Sprague Dawley, rat, plasma, iv, 10 mg/kg, intravenous 10 mg/kg, male rats, Arithmetic Mean, read-out: t1/2 (converted)) of the same compound?
**A.** 3.29 h

**Q.** What about the AUC(0-inf) (male, Sprague Dawley, rat, plasma, iv, 10 mg/kg, intravenous 10 mg/kg, male rats, Geometric mean) of the same compound?
**A.** 2010 ng·h/mL

**Q.** What about the AUC(0-t) (male, Sprague Dawley, rat, plasma, iv, 10 mg/kg, intravenous 10 mg/kg, male rats, Geometric mean, read-out: AUC0-t) of the same compound?
**A.** 1840 ng·h/mL

**Q.** And the C0 (male, Sprague Dawley, rat, plasma, iv, 10 mg/kg, intravenous 10 mg/kg, male rats, Geometric mean, read-out: C0)?
**A.** 3360 ng/mL

**Q.** What about the clearance (male, Sprague Dawley, rat, plasma, iv, 10 mg/kg, intravenous 10 mg/kg, male rats, Geometric mean, read-out: CL (systemic plasma clearance) (converted)) of the same compound?
**A.** 84.6 mL/min/kg

**Q.** And the MRT (male, Sprague Dawley, rat, plasma, iv, 10 mg/kg, intravenous 10 mg/kg, male rats, Geometric mean, read-out: MRT)?
**A.** 3.65 h

**Q.** And the Vd (male, Sprague Dawley, rat, plasma, iv, 10 mg/kg, intravenous 10 mg/kg, male rats, Geometric mean, read-out: Vss (mean apparent volume of distribution))?
**A.** 18.5 L/kg

**Q.** And the half-life (male, Sprague Dawley, rat, plasma, iv, 10 mg/kg, intravenous 10 mg/kg, male rats, Geometric mean, read-out: t1/2 (mean apparent terminal half-life) (converted))?
**A.** 3.25 h

**Q.** What about the AUC(0-inf) (male, Sprague Dawley, rat, plasma, iv, 10 mg/kg, intravenous 10 mg/kg, male rats, Median) of the same compound?
**A.** 1870 ng·h/mL

**Q.** What about the AUC(0-t) (male, Sprague Dawley, rat, plasma, iv, 10 mg/kg, intravenous 10 mg/kg, male rats, Median, read-out: AUC0-t) of the same compound?
**A.** 1700 ng·h/mL

**Q.** And the C0 (male, Sprague Dawley, rat, plasma, iv, 10 mg/kg, intravenous 10 mg/kg, male rats, Median, read-out: C0)?
**A.** 3020 ng/mL

**Q.** What about the clearance (male, Sprague Dawley, rat, plasma, iv, 10 mg/kg, intravenous 10 mg/kg, male rats, Median, read-out: CL (converted)) of the same compound?
**A.** 90.5 mL/min/kg

**Q.** What about the MRT (male, Sprague Dawley, rat, plasma, iv, 10 mg/kg, intravenous 10 mg/kg, male rats, Median, read-out: MRT) of the same compound?
**A.** 3.53 h

**Q.** What about the Vd (male, Sprague Dawley, rat, plasma, iv, 10 mg/kg, intravenous 10 mg/kg, male rats, Median, read-out: Vss) of the same compound?
**A.** 20 L/kg

**Q.** And the half-life (male, Sprague Dawley, rat, plasma, iv, 10 mg/kg, intravenous 10 mg/kg, male rats, Median, read-out: t1/2 (converted))?
**A.** 3.25 h

**Q.** What about the AUC(0-inf) (male, Sprague Dawley, rat, plasma, iv, 10 mg/kg, intravenous 10 mg/kg, male rats, individual animals) of the same compound?
**A.** 1750 ng·h/mL

**Q.** What about the AUC(0-t) (male, Sprague Dawley, rat, plasma, iv, 10 mg/kg, intravenous 10 mg/kg, male rats, individual animals, read-out: AUC0-t) of the same compound?
**A.** 1500 ng·h/mL

**Q.** And the C0 (male, Sprague Dawley, rat, plasma, iv, 10 mg/kg, intravenous 10 mg/kg, male rats, individual animals, read-out: C0)?
**A.** 3020 ng/mL

**Q.** And the clearance (male, Sprague Dawley, rat, plasma, iv, 10 mg/kg, intravenous 10 mg/kg, male rats, individual animals, read-out: CL (converted))?
**A.** 97.1 mL/min/kg

**Q.** And the MRT (male, Sprague Dawley, rat, plasma, iv, 10 mg/kg, intravenous 10 mg/kg, male rats, individual animals, read-out: MRT)?
**A.** 3.53 h

**Q.** And the Vd (male, Sprague Dawley, rat, plasma, iv, 10 mg/kg, intravenous 10 mg/kg, male rats, individual animals, read-out: Vss)?
**A.** 20.6 L/kg

**Q.** And the half-life (male, Sprague Dawley, rat, plasma, iv, 10 mg/kg, intravenous 10 mg/kg, male rats, individual animals, read-out: t1/2 (converted))?
**A.** 3.25 h

**Q.** What about the concentration at 0.05 h (male, Sprague Dawley, rat, plasma, iv, 10 mg/kg, single intravenous 10 mg/kg, male rats, 0.05 h (3 min), mean of 3, read-out: Mean Concentration in plasma) of the same compound?
**A.** 2350 ng/mL

**Q.** And the concentration at 0.05 h (male, Sprague Dawley, rat, plasma, iv, 10 mg/kg, single intravenous 10 mg/kg, male rats, 0.05 h, individual animals, read-out: Sample Concentration in plasma)?
**A.** 1640 ng/mL

**Q.** What about the concentration at 0.1 h [2] of the same compound?
**A.** 1590 ng/mL

**Q.** And the concentration at 0.1 h [3]?
**A.** 1340 ng/mL

**Q.** And the concentration at 0.25 h [2]?
**A.** 847 ng/mL

**Q.** And the concentration at 0.25 h [3]?
**A.** 724 ng/mL

**Q.** What about the concentration at 0.75 h [2] of the same compound?
**A.** 264 ng/mL

**Q.** And the concentration at 0.75 h [3]?
**A.** 278 ng/mL

**Q.** And the concentration at 1.5 h [2]?
**A.** 250 ng/mL

**Q.** What about the concentration at 1.5 h [3] of the same compound?
**A.** 217 ng/mL

**Q.** And the concentration at 2.5 h [2]?
**A.** 195 ng/mL

**Q.** And the concentration at 2.5 h [3]?
**A.** 191 ng/mL

**Q.** What about the concentration at 4 h [2] of the same compound?
**A.** 122 ng/mL

**Q.** What about the concentration at 4 h [3] of the same compound?
**A.** 132 ng/mL

**Q.** And the concentration at 6 h [2]?
**A.** 83.9 ng/mL

**Q.** And the concentration at 6 h [3]?
**A.** 86 ng/mL

**Q.** What about the concentration at 8 h (male, Sprague Dawley, rat, plasma, iv, 10 mg/kg, single intravenous 10 mg/kg, male rats, 8 h, mean, read-out: Mean Concentration in plasma) of the same compound?
**A.** 65.1 ng/mL
